The results in this text go back to PMC7252619 (PLoS ONE, 2020).

Data set [1] has as its target T1, MLK4 (Homo sapiens, UniProt Q5TCX8).
T1 construct: purchased ReactionBiology
The format is biochemical. The conditions noted are these: for % Enzyme Activity (relative to DMSO controls), Data 1: replicate Data 1; for % Enzyme Activity (relative to DMSO controls), Data 2: replicate Data 2.

Data set [2] deals with human CD19+ B cells. The data set can be described thus: B-cell assay: IgG production of ODN2006-stimulated primary B cells (AlphaLISA). The format is cell-based. Background: In Alpha technology, singlet oxygen from a donor bead excites a nearby acceptor bead.
Procedure: (§1) Compounds were prepared as 10 mM stock solutions in dimethylsulfoxide (DMSO)and were tested at 50-10-1-0.1-0.01 and 0.001 μM in the 4 assays.
Blood samples of healthy volunteers were collected at the Red Cross of Mechelen, Belgium.
Highly purified naive peripheral human B cells were separated from fresh human PBMCs on magnetic columns by positive selection using CD19 magnetic beads according to the manufacturer’s instructions (MACS Miltenyi Biotech, Leiden, The Netherlands). […] Freshly isolated human CD19+ B cells were then plated at 25 000 cells per well in a 384-well plate (Perkin Elmer, Zaventem, Belgium) in 55 μL in DMEM medium containing 10% FCS and 5 μg/mL gentamicin sulphate. After 7 days of stimulation with 0.1 μM ODN2006 (InvivoGen, Toulouse, France), supernatant was taken for analysis of IgG using the AlphaLISA human IgG kit according to the manufacturer’s instructions (Perkin Elmer, Zaventem, Belgium).
For data set [3], the system named is human PBMCs (responder cells) with RPMI1788 stimulator cells. The data set can be described thus: Mixed Lymphocyte Reaction (MLR, T cell assay), 3H-thymidine incorporation. In kind it is cell-based. To be noted: for Selectivity Index (SI) MLR/B-cell: ratio of IC50 values. In general terms: Uptake of a labelled nucleoside into DNA is a usual measure of proliferation.

Data set [4] deals with RPMI1788 cells. The data set is described as follows: WST-1 cytotoxicity assay on RPMI1788 cells (B-cell line). The format is cell-based, human. The conditions noted are these: 48 h; mean of 4 independent measures; read-out: Cytotoxicity, WST-1 RPMI 1788 IC 50 (µM) Mean. In general terms: Tetrazolium dyes change colour on reduction, which living cells bring about.
For data set [5], the system named is Jurkat cells. The data set can be described thus: WST-1 cytotoxicity assay on Jurkat cells (T-cell line). In kind it is cell-based, human. The conditions noted are these: 48 h; mean of 4 independent measures; read-out: Cytotoxicity, WST-1 Jurkat IC 50 (µM) Mean.
Procedure: as §1
(§2) The human B cell line RPMI1788 (American Type Culture Collection, USA) and the human T cell line Jurkat (European Collection of Cell Cultures, ECACC, England) were maintained in RPMI1640 culture medium (BioWhittaker®, Lonza, Verviers, Belgium) containing 10% foetal calf serum (FCS, HyClone® Thermo Scientific, United Kingdom) and 5 μg/mL gentamicin sulphate (BioWhittaker®, Lonza, Verviers, Belgium) at 37°C and 5% CO2.
(§3) WST-1 assays on RPMI-1788 cells and Jurkat cells were performed as follows: 20 μL of test compound dilution were added to each well containing exponential growing cells and the plates were incubated for 48 h at 37°C, 5% CO2. Untreated cells and positive control (1% triton X-100, for the last 15 min) served as reference for maximum and minimum viability. At the end of incubation 100 μL of supernatant were removed and replaced by 10 μL of WST-1 solution (Cell Proliferation Reagent WST-1, Roche Applied Science).
A short description of data set [6]: WST-1 cytotoxicity assay on RPMI1788 cells (B-cell line). In kind it is cell-based, human. To be noted: human, RPMI1788 cells (B-cell line), mean of 4 independent measures, read-out: Cytotoxicity, WST-1 RPMI 1788 IC 50 (µM) Mean.
Data set [7] in a line: WST-1 cytotoxicity assay on Jurkat cells (T-cell line). The format is cell-based, human. To be noted: human, Jurkat cells (T-cell line), mean of 4 independent measures, read-out: Cytotoxicity, WST-1 Jurkat IC 50 (µM) Mean.
Procedure: as §1, §2, §3
The target of data set [8] is T2, VEGFR2 (Homo sapiens, UniProt P35968). The data set is described as follows: Kinase activity test (ReactionBiology), % enzyme activity relative to DMSO. In kind it is biochemical. Details: purchased ReactionBiology. The conditions noted are these: VEGFR2.
In data set [9] the target is T2, VEGFR2. The data set is described as follows: KINOMEscan competition binding assay, dose response.
Data set [10] concerns the target T3, NEK2 (Homo sapiens, UniProt P51955).
T3 construct: purchased ReactionBiology
T3 sequence (P51955 1-445): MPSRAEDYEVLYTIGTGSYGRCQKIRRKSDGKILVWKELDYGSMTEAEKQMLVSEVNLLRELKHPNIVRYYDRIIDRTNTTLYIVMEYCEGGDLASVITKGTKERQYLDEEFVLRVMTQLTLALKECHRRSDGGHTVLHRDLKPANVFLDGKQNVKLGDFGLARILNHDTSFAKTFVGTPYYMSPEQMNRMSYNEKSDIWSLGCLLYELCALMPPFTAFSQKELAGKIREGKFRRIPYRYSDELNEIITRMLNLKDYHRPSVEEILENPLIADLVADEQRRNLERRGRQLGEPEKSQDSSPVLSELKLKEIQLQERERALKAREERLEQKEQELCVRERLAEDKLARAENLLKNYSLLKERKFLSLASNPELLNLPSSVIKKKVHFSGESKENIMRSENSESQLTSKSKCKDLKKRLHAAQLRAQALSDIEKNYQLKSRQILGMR
The data set can be described thus: Kinase activity test (ReactionBiology), % enzyme activity relative to DMSO. In kind it is biochemical.

Data set [11] has as its target T4, CK1d (Homo sapiens, UniProt P48730).
T4 construct: purchased ReactionBiology
Described as above. In kind it is biochemical. To be noted: CK1d.

The target in data set [12] is T5, CDC7 (Homo sapiens, UniProt O00311).
T5 construct: purchased ReactionBiology
Described as above. The format is biochemical.

Data set [13] addresses T6, EPHB4 (Homo sapiens, UniProt P54760).
T6 construct: purchased ReactionBiology
T6 sequence (P54760 16-987): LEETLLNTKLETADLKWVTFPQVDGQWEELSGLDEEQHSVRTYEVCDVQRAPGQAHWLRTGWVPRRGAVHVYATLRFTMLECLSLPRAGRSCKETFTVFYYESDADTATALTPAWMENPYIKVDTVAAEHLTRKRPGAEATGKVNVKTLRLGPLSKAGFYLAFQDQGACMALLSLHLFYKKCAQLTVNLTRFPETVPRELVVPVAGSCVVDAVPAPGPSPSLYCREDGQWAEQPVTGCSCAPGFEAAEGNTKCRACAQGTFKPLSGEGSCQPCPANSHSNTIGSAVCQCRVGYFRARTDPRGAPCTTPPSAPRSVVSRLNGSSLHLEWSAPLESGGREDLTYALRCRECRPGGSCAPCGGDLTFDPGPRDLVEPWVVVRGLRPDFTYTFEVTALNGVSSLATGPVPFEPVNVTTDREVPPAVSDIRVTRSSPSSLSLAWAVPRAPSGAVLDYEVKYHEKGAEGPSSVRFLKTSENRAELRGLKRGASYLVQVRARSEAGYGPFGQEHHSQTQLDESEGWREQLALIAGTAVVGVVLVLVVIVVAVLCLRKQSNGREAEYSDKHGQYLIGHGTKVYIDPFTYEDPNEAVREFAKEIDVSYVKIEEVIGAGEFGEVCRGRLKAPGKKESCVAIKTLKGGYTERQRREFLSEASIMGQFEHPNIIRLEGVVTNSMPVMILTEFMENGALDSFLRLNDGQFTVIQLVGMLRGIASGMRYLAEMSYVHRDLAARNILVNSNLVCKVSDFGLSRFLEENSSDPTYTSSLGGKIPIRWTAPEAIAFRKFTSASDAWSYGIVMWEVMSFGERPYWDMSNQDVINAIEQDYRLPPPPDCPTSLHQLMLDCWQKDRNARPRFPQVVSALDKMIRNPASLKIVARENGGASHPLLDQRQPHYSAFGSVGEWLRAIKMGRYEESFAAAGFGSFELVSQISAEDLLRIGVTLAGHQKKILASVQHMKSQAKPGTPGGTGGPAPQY
The description is as above. The format is biochemical. The conditions noted are these: EPHB4.

In data set [14] the target is T7, MAP2K2 (Homo sapiens, UniProt P36507).
T7 construct: purchased ReactionBiology
The description is as above. The format is biochemical.

The mark [15] stands for this setting: Homo sapiens, B-cell, 168 h, IgG production, ODN2006 0.1 μM, 7 days, mean of 4 independent experiments, read-out: B-cell IC50.
The mark [16] stands for this setting: 1 uM, Average, read-out: % Enzyme Activity (relative to DMSO controls), Average.
Setting [17] is: 1 uM, replicate Data 1, read-out: % Enzyme Activity (relative to DMSO controls), Data 1.
The mark [18] stands for this setting: 1 uM, replicate Data 2, read-out: % Enzyme Activity (relative to DMSO controls), Data 2.
Where [19] appears, read: 10 uM, Average, read-out: % Enzyme Activity (relative to DMSO controls), Average.
The mark [20] stands for this setting: 10 uM, replicate Data 1, read-out: % Enzyme Activity (relative to DMSO controls), Data 1.
The mark [21] stands for this setting: 10 uM, replicate Data 2, read-out: % Enzyme Activity (relative to DMSO controls), Data 2.
Setting [22] is: read-out: % Enzyme Activity (relative to DMSO controls), Average.
[23] abbreviates: read-out: % Enzyme Activity (relative to DMSO controls), Data 1.
Setting [24] is: read-out: % Enzyme Activity (relative to DMSO controls), Data 2.
[25] abbreviates: read-out: % Enzyme activity at 1μM.
The mark [26] stands for this setting: read-out: % Enzyme activity at 10μM.
The mark [27] stands for this setting: Average, read-out: % Enzyme Activity (relative to DMSO controls), Average.
[28] abbreviates: replicate Data 1, read-out: % Enzyme Activity (relative to DMSO controls), Data 1.
[29] abbreviates: replicate Data 2, read-out: % Enzyme Activity (relative to DMSO controls), Data 2.

Where two headings read alike, the source gives them in different places.

By Kd is commonly meant the concentration at which binding is half-saturated. The low end stands for higher affinity, the high end for lower affinity.
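For % Enzyme activity at 10μM in this document: VEGFR2 was one member of a ten-kinase screening panel testing marketed FDA-approved drugs.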
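For % Enzyme activity at 1μM in this document: VEGFR2 was one member of a ten-kinase screening panel testing marketed FDA-approved drugs.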

T1 sequence (Q5TCX8 whole entry): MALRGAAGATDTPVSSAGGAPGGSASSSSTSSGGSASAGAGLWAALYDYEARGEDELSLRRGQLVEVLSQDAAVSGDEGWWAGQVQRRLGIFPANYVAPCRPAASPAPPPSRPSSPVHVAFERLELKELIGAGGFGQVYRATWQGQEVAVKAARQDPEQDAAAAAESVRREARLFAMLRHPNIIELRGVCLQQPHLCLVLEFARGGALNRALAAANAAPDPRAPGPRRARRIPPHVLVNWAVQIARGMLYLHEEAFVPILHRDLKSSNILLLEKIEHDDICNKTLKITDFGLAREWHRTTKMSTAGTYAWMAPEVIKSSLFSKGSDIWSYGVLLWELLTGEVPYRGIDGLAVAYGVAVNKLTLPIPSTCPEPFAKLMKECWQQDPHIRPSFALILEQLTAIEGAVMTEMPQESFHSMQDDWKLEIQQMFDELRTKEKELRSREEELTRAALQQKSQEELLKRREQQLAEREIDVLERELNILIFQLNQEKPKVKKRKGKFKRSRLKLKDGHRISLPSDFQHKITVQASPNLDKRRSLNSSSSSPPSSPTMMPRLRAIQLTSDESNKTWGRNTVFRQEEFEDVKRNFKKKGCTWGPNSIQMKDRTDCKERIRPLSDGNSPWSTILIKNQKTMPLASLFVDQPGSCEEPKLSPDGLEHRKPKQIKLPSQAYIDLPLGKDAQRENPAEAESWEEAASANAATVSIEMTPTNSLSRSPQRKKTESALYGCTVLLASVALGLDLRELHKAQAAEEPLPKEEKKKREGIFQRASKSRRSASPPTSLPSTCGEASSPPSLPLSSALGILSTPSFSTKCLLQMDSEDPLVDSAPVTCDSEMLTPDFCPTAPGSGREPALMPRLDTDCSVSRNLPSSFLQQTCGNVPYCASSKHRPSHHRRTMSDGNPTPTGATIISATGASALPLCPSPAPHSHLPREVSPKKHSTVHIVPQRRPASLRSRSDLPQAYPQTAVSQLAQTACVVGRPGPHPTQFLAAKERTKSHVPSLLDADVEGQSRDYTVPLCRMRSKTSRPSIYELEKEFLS
T4 sequence (P48730 whole entry): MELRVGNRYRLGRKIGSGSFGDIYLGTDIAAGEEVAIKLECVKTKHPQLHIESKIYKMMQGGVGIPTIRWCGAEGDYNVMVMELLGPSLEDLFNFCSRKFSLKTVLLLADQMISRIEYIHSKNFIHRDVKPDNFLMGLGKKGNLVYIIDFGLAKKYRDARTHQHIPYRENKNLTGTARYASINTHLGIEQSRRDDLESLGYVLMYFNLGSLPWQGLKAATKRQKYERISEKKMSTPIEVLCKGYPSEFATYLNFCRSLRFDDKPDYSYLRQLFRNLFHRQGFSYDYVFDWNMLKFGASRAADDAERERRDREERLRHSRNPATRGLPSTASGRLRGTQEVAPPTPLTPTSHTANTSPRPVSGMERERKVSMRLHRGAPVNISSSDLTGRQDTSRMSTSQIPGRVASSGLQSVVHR
T7 sequence (P36507 whole entry): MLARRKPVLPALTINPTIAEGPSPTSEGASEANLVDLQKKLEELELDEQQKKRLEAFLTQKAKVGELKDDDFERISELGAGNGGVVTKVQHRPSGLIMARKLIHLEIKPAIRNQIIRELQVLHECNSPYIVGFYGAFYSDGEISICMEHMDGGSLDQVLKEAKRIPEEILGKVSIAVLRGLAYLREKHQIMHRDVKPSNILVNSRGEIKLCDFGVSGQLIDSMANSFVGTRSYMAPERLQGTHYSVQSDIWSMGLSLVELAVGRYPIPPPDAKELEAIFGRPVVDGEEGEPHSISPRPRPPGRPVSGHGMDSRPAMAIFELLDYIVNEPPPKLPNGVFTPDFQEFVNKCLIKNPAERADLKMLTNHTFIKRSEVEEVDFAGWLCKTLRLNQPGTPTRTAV
T5 sequence (O00311 whole entry): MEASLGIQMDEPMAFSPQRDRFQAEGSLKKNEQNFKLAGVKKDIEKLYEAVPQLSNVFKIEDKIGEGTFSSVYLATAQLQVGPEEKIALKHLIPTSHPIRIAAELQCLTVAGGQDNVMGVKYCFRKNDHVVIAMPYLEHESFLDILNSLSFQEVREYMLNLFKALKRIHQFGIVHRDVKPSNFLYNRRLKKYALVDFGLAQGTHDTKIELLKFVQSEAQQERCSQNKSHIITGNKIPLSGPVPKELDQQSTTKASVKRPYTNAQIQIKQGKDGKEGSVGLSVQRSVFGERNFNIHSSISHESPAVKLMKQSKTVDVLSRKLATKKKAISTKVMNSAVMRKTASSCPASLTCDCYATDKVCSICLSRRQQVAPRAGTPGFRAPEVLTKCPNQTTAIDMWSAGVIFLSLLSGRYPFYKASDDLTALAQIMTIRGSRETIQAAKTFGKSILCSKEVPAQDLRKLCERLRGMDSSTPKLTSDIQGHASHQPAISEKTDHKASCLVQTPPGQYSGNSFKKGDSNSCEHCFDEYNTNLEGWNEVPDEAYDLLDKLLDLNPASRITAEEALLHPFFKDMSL
T5 sequence (Q9UBU7 whole entry partner): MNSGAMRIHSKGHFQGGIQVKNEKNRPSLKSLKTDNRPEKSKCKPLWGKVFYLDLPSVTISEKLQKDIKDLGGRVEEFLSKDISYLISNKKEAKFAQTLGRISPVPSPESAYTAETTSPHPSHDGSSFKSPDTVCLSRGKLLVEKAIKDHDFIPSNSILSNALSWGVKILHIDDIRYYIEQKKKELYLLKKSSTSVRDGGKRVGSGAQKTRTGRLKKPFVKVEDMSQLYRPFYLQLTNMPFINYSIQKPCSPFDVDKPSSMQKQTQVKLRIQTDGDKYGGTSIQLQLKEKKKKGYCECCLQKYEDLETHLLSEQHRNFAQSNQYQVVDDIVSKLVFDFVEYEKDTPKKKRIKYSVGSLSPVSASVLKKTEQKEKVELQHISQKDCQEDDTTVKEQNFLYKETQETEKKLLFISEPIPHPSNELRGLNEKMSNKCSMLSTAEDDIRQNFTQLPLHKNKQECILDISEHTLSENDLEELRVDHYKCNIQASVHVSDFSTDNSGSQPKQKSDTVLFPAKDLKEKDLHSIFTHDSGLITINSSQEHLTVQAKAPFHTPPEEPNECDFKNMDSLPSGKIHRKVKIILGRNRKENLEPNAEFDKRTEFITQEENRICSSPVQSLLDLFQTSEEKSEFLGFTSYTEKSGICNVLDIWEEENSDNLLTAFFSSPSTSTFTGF
T2 sequence (P35968 20-1356): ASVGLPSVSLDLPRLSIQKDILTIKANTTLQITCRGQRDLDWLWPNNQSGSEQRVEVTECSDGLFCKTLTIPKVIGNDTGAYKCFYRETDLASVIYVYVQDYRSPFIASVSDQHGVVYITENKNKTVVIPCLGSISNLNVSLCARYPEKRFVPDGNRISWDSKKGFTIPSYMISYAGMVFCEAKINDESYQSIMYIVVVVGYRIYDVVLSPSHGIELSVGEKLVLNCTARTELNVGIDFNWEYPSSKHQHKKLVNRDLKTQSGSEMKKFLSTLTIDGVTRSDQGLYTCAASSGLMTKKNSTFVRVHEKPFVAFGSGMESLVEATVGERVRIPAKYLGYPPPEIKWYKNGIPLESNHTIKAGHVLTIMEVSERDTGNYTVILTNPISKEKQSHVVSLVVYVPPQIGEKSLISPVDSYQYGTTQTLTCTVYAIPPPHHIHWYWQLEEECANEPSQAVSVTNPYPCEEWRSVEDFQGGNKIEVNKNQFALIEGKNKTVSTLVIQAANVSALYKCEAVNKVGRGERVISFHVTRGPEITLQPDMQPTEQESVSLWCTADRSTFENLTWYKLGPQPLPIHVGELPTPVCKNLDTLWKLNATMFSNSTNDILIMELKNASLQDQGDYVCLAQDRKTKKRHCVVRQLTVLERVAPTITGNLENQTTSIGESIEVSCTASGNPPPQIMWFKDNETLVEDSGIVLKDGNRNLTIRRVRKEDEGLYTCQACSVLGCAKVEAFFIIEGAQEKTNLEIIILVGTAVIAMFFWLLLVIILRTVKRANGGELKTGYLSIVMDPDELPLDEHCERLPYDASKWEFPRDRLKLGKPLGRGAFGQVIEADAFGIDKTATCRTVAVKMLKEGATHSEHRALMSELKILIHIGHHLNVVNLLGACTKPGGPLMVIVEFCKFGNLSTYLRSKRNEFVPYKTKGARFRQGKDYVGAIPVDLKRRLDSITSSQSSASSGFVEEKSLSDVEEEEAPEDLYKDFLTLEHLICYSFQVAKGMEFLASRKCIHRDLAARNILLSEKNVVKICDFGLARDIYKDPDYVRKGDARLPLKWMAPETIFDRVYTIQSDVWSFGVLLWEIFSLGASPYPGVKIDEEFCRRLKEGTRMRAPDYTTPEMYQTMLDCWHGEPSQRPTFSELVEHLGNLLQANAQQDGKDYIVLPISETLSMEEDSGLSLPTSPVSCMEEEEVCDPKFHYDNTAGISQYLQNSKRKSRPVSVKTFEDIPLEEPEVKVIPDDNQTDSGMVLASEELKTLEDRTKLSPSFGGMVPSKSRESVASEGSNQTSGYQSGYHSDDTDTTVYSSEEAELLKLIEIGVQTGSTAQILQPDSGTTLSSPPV

Consider `CC(=O)Nc1nnc(S(N)(=O)=O)s1` [Acetazolamide], for which, in data set [1] (1 uM), the “% Enzyme Activity (relative to DMSO controls), Average” value was determined as 106.03%; the “% Enzyme Activity (relative to DMSO controls), Data 1” value came to 105.08%; the “% Enzyme Activity (relative to DMSO controls), Data 2” value stood at 106.98%. For the same compound, in [1] (10 uM), the “% Enzyme Activity (relative to DMSO controls), Average” value worked out at 98.49%; the “% Enzyme Activity (relative to DMSO controls), Data 1” value came out at 99.01%; the “% Enzyme Activity (relative to DMSO controls), Data 2” value worked out at 97.97%.
Regarding `COc1c(C)c2c(c(O)c1C/C=C(\C)CCC(=O)OCCN1CCOCC1)C(=O)OC2` [Mycophenolate Mofetyl], the IC50 in data set [2] (mean of 4 independent measures, read-out: B-cell efficacy, B cell IC 50 (µM) Mean) turned out to be 0.723 µM; in data set [3] (mean of 4 independent measures, read-out: T-cell efficacy, MLR IC 50 (µM) Mean) it was 0.121 µM; in data set [4] it was 0.487 µM; in data set [5], 0.552 µM.
As to `NCCC(O)(P(=O)(O)O)P(=O)(O)O` [Pamidronate], in data set [1] (1 uM), the “% Enzyme Activity (relative to DMSO controls), Average” value came out at 79.13%; the “% Enzyme Activity (relative to DMSO controls), Data 1” value is 76.76%; the “% Enzyme Activity (relative to DMSO controls), Data 2” value came out at 81.5%. In addition, in [1] (10 uM), the “% Enzyme Activity (relative to DMSO controls), Average” value is 78.77%; the “% Enzyme Activity (relative to DMSO controls), Data 1” value is recorded as 82.48%; the “% Enzyme Activity (relative to DMSO controls), Data 2” value is reported as 75.06%.
Turning to `Cc1ccc(C(=O)Nc2ccc(S(=O)(=O)O)c3cc(S(=O)(=O)O)cc(S(=O)(=O)O)c23)cc1NC(=O)c1cccc(NC(=O)Nc2cccc(C(=O)Nc3cc(C(=O)Nc4ccc(S(=O)(=O)O)c5cc(S(=O)(=O)O)cc(S(=O)(=O)O)c45)ccc3C)c2)c1` [Suramin, reference compound], the IC50 in [2] (setting [15]) was 35.2 µM; in data set [3] (Homo sapiens, RPMI-1788, mean of 4 independent measures, read-out: T-cell efficacy, MLR IC 50 (µM) Mean), 29.8 µM. The “Selectivity Index (SI) MLR/B-cell” value in data set [3] is on record as 0.85. Moreover, the IC50 at 48 h in [6] and in data set [7] was more than 50 µM each time. Moreover, the remaining activity at 1 µM in data set [8] (setting [16]) worked out at 72.7%; in data set [8] (setting [17]), 73.6%; in [8] (setting [18]), 71.8%; in data set [8] (compound 1μM, relative to DMSO controls, read-out: % Enzyme activity at 1μM), 72.7%. For the same compound, the remaining activity at 10 µM in data set [8] (setting [19]) is 6.48%; in [8] (setting [20]), 7.02%; in data set [8] (setting [21]), 5.94%; in data set [8] (compound 10μM, relative to DMSO controls, read-out: % Enzyme activity at 10μM), 6.48%. The same compound registered a Kd in data set [9] of 25 µM.
On to `Oc1cc(Cl)ccc1Oc1ccc(Cl)cc1Cl` [Triclosan, reference compound], for which the remaining activity at 1 µM in data set [10] (setting [22]) amounted to 99.2%; in data set [10] (setting [23]), 98.5%; in data set [10] (setting [24]), 99.8%; in data set [10] (setting [25]), 99.2%; in [11] (setting [27]), 96.6%; in [11] (setting [28]), 94.8%. Moreover, the remaining activity at 1 µM amounted to 98.3% in data set [11] (setting [29]); 70.5% in data set [12] (setting [22]); 68.2% in data set [12] (setting [23]); 72.7% in data set [12] (setting [24]); 70.5% in [12] (setting [25]); 100% in data set [13] (setting [27]). In addition, the remaining activity at 1 µM in data set [13] (setting [28]) amounted to 101%; in data set [13] (setting [29]), 99.9%; in data set [14] (setting [22]), 97.6%; in [14] (setting [23]) it was 95.3%; in data set [14] (setting [24]), 99.8%; in [8] (setting [16]) it was 111%. Also, the figures for the remaining activity at 1 µM in data set [8] (setting [17]) and in [8] (setting [18]) were 108% and 114%, respectively. For the same compound, the remaining activity at 10 µM in [10] (setting [22]) came to 64.6%; in data set [10] (setting [23]) it was 68.9%; in [10] (setting [24]), 60.4%; in data set [10] (setting [26]) it was 64.6%; in [11] (setting [27]), 96.9%; in [11] (setting [28]), 97.8%. Further, the remaining activity at 10 µM was 96% in data set [11] (setting [29]); 65.4% in data set [12] (setting [22]); 71.2% in [12] (setting [23]); 59.7% in data set [12] (setting [24]); 65.4% in [12] (setting [26]); 97.4% in data set [13] (setting [27]). For the same compound, the remaining activity at 10 µM in data set [13] (setting [28]) was 97.3%; in data set [13] (setting [29]), 97.4%; in data set [14] (setting [22]), 96%; in data set [14] (setting [23]), 95%; in [14] (setting [24]), 97.1%; in data set [8] (setting [19]), 101%. The remaining activity at 10 µM in data set [8] (setting [20]) is 103%; in data set [8] (setting [21]), 99.9%. The IC50 in data set [2] (setting [15]) was 20.9 µM; in [3] (Homo sapiens, RPMI-1788, read-out: T-cell efficacy, MLR IC 50 (µM) Mean), 34.3 µM. In [3], the “Selectivity Index (SI) MLR/B-cell” value was 1.64. Besides, the IC50 at 48 h in [6] came to 27.7 µM; in data set [7], 26.2 µM.
